Measurements taken from US20210077501A1, “COMPOSITIONS FOR PREVENTING OR TREATING UVEITIS” (Chong Kun Dang Pharmaceutical Corp., priority 2018, published 2021).

Experiments:
[1] = system: TNFα secretion in LPS-stimulated human monocyte cell lines (THP-1); experiment: Suppression of TNFα secretion in LPS-stimulated THP-1 cells (ELISA); assay type: cell-based
Procedure: To identify the efficacy of the inventive compounds on suppressing a TNFα secretion in immune responses, suppression of TNFα production, which was achieved by a treatment with compounds 374, 461, 500, 530 and 532 according to the present invention in LPS-stimulated human monocyte cell lines (THP-1), was quantified by means of an enzyme immuno-assay (ELISA).
Specifically, the THP-1 cell lines (ATCC) were cultured in an RPMI-1640 medium comprising 10% FBS. The cell lines were divided into a 24 well plate at a ratio of 1×10^5 cells per well, then treated with 100 ng/mL PMA (phorbol 12-myristate 13-acetate) for 24 hours, and then differentiated into macrophage. Then, the culture medium was replaced with a new one, then treated with a test drug for 24 hours, and then treated again with 10 ng/mL LPS (E.Coli, O55:B5) for four hours for stimulation. After that, supernatant was taken and used to measure the amount of TNFα secreted from the cells by means of a Human TNFα Instant ELISA kit (eBioscience, BMS223INST) according to a protocol provided by a manufacturer.

reactive T cells = experiment: Treg suppression assay: proliferation of reactive T cells (eFluor670 dilution, flow cytometry); assay type: cell-based, mouse; conditions: Teff:Treg 2:1, three days; concentration not specified
Procedure: To identify the efficacy of the inventive compounds on suppressing the proliferation of reactive T cells in immune responses, compounds 255, 280, 374, 416 and 476 according to the present invention were cultured together with reactive T cells and regulatory T cells […], and then the suppressive efficacy of regulatory T cells was measured.
Specifically, a six-week old C57BL6 male mice were supplied from Central Lab Animal Inc., then acclimated for one week, and then used in an experiment. A spleen was isolated from the mouse, and then treated with collagenase D (Roche, 11088866001), such that splenocytes were isolated therefrom. […] were isolated by means of a CD4+CD25+ regulatory T cell isolation kit (Miltenyi Biotec, 130-091-041) according to a protocol provided by a manufacturer. Teff cells were cultured at 37° C. for ten minutes by means of eFluor®670 (Cell proliferation Dye eFluor®670, eBioscience), such that cell membranes were stained. Teff and Treg were divided into a 96 well plate at a ratio of 2:1, and then T cells were activated for three days by means of an anti-CD3E and anti-CD28 mAb magnetic bead (T cell activation/expansion kit, Miltenyi Biotec, 130-093627), such that Treg suppression assay was performed. A test drug was simultaneously treated for three days, during which the assay was performed. The divided amount of eFluor®670 labeled on the Teff cell membranes was measured, such that a degree of proliferation of T cells was evaluated accordingly. An eFluor®670-dilution plot was measured by means of a flow cytometer (FACS LSR Fortessa, BD bioscience). The suppressive ability on T cells proliferation was calculated by means of a following equation.

[2] = system: CTLA4 (cytotoxic T-lymphocyte-associated protein 4) in the regulatory T cells; experiment: CTLA4 expression in regulatory T cells (iTreg) by flow cytometry; assay type: cell-based, mouse; conditions: iTreg, six days treatment; concentration not specified
Procedure: To identify if the compounds according to the present invention regulate a function of regulatory T cells in immune responses, compounds 255, 280, 374, 416 and 476 were treated, and then an expression level of an immune checkpoint receptor CTLA4 (cytotoxic T-lymphocyte-associated protein 4) in the regulatory T cells was measured by means of flow cytometry.
Specifically, a six-week old C57BL6 male mice were supplied from Central Lab Animal Inc., then acclimated for one week, and then used in an experiment. A spleen was isolated from the mouse, and then treated with collagenase D (Roche, 11088866001), such that splenocytes were isolated therefrom. CD4+CD25-T cells were isolated by means of a CD4+CD25+ regulatory T cell isolation kit (Miltenyi Biotec, 130-091-041), and then CD4+CD25-T cells (at a ratio of 5×10^5 cells/well) were treated with an anti-CD3E/anti-CD28 mAb bead (T cell activation/expansion kit, Miltenyi Biotec, 130-093627) and a mouse recombinant TGF-β2 for six days, such that they were differentiated into iTreg. A test drug was simultaneously treated for six days, during which the cells were differentiated into iTreg. After that, the cells were incubated by means of anti-CD4/anti-CD25 mAb (eBioscience, 25-0042-82, 17-0251-82) at 4° C. for 20 minutes, and then labeling was performed. For intracytoplasmic staining, permeabilization was performed by means of Fix/permeabilization buffer (eBioscience, 00-5523-00), then labeling was performed by means of anti-FOXP3-Alexafluor488 (eBioscience, 53-5773-82) and anti-CTLA4-PE (eBioscience, 12-1522-82), and then flow cytometry was performed by means of FACS LSR Fortessa (BD bioscience).

[3] = system: experimental autoimmune uveitis (EAU) mouse; experiment: Clinical grading of uveitis in the EAU mouse (fundoscopy); assay type: in vivo
[4] = system: experimental autoimmune uveitis (EAU) mouse; experiment: H&E staining of histopathological lesions in the retina of the EAU mouse; assay type: in vivo; conditions: 0.3% eye drop twice a day, Day 21
[5] = system: experimental autoimmune uveitis (EAU) mouse; experiment: Immunofluorescent staining of immunomarkers in the retina of the EAU mouse; assay type: in vivo
[6] = system: experimental autoimmune uveitis (EAU) mouse; experiment: ELISA of IFN-γ and IL-17A from spleen mononuclear cells of the EAU mouse; assay type: in vivo
[7] = system: experimental autoimmune uveitis (EAU) mouse; experiment: Real-time PCR of HDAC6 and inflammatory cytokines in the retina of the EAU mouse; assay type: in vivo; conditions: for expression level of HDAC6 / expression level of IL-1β / expression level of IL-17 / expression level of INF-γ / expression level of TNF-α: retina
[8] = system: experimental autoimmune uveitis (EAU) mouse; experiment: FACS of immune cells in retina and draining lymph node of the EAU mouse; assay type: in vivo
[9] = EAU mouse, eye drop administration group
[10] = spleen MNC stimulated with IRBP peptide 72 hours, eye drop administration group
[11] = i.p. administration group (10 or 30 mg/kg once a day)
[12] = lymph node tissues, eye drop administration group
[13] = lymph nodes, i.p. administration group
[14] = retina tissues, eye drop administration group

Structure (SMILES): O=C(NO)c1ccc(CN(C(=O)N2CCOCC2)c2cccc(C(F)(F)F)c2)cc1 [Compound 374, N-(4-(hydroxycarbamoyl)benzyl)-N-(3-(trifluoromethyl)phenyl)morpholine-4-carboxamide]
- level of TNFα secretion ([1]; THP-1, LPS, at both 100 nM and 300 nM): remarkably decreased down to a level at which no inflammatory response was induced by means of the LPS
- level of TNFα secretion ([1]; in comparison with LPS-induced control group, THP-1, concentration not specified): excellent effect
- proliferation of the reactive T cells (reactive T cells): excellent effect
- level of CTLA4 expression in the T cells (function of regulatory T cells) [2]: excellent effect
- clinical grade of uveitis ([3]; EAU mouse, 0.3% eye drop twice a day from Day 11, Day 21, scale Grade 0-4): ≤ 0.5 Grade
- decreasing a uveitis lesion ([3]; animal model for an induced uveitis disease, summary (FIGS. 4 to 6)): excellent effect
- inflammatory lesions in retina tissues (H&E) [4]: significantly decreased
- B220 (B cell marker) in retina [5, 9]: did not show an obvious change
- CD3(+) cell (T cell marker) in retina [5, 9]: significantly decreased to a similar level to that of a normal mouse
- infiltration of CD4(+) immune cells into a retina tissue [5, 9]: clearly decreased and remained only under the retina
- inhibiting an infiltration of inflammatory cells ([5]; animal model for an induced uveitis disease, summary (FIGS. 7 to 10)): excellent effect
- inhibiting an expression of inflammatory cytokines in a spleen ([6]; animal model for an induced uveitis disease, summary (FIG. 11)): excellent effect
- level of IL-17A [6, 10]: significantly decreased
- level of INF-γ [6, 10]: significantly decreased
- inhibiting an expression of inflammatory cytokines in inflammation regions ([7]; animal model for an induced uveitis disease, summary (FIG. 12)): excellent effect
- expression level of HDAC6 ([7]; eye drop administration group): significantly decreased and recovered to the level of the normal mouse
- expression level of IL-1β ([7]; eye drop administration group): significantly decreased and recovered to the level of the normal mouse
- expression level of IL-17 ([7]; eye drop administration group): significantly decreased and recovered to the level of the normal mouse
- expression level of INF-γ ([7]; eye drop administration group): significantly decreased and recovered to the level of the normal mouse
- expression level of TNF-α ([7]; eye drop administration group): significantly decreased and recovered to the level of the normal mouse
- expression level of HDAC6 [7, 11]: significantly decreased and recovered to the level of the normal mouse
- expression level of IL-1β [7, 11]: significantly decreased and recovered to the level of the normal mouse
- expression level of IL-17 [7, 11]: significantly decreased and recovered to the level of the normal mouse
- expression level of INF-γ [7, 11]: significantly decreased and recovered to the level of the normal mouse
- expression level of TNF-α [7, 11]: significantly decreased and recovered to the level of the normal mouse
- decreasing the number of immune cells in a retina and a lymph node ([8]; animal model for an induced uveitis disease, summary (FIGS. 13 to 21)): excellent effect
- number of IL-IP(+) cells [8, 12]: significantly decreased
- number of INF-γ(+)/CD4(+) cells [8, 12]: significantly decreased
- number of INF-γ(+)/CD4(+) cells ([8]; lymph node tissues, i.p. administration group): significantly decreased
- number of CD11b(+) cells [8, 13]: decreased
- number of CD19(+) cells [8, 13]: decreased
- number of F4/80(+) cells [8, 13]: decreased
- number of IL-IP(+) cells [8, 14]: significantly decreased
- number of INF-γ(+)/CD4(+) cells [8, 14]: significantly decreased
- number of INF-γ(+)/CD4(+) cells ([8]; retina tissues, i.p. administration group, 10 mg/kg): significantly decreased
- number of INF-γ(+)/CD4(+) cells ([8]; retina tissues, i.p. administration group, 30 mg/kg): significantly decreased
